Results published in patent publication US9233095B2, “Small molecule RNase inhibitors and methods of use” (University of Rochester, priority 2011, dated 2016).

What was measured:
[1] = system: S. aureus strain Smith; assay: acute lethal model of infection; format: in vivo, CD-1 mice; conditions: 5 days
Experimental: Because RNPA1000 was not toxic during short- and only mildly toxic during extended-HepG2 exposure, it could serve as an appropriate tool to assess whether RnpA-inhibitory molecules are efficacious in a systemic mouse infection model. […] RNPA1000 was solubilized in 1:1 mixture of DMSO and PEG400; Vancomycin was prepared in water. Animals (5/dose group) were administered 16, 64, and 256 mg/kg or 0.25, 1, 4, and 16 mg/kg of RNPA1000 or Vancomycin, respectively, at 30 min post infection by subcutaneous injection (0.2 ml). The percent surviving animals receiving no treatment, a single dose of Vancomycin, or RnpA-inhibitor was recorded daily over the course of the study (5 days).
Percent survival refers to a consensus of surviving animals following 5 days post-intraperitoneal S. aureus injection and RNPA1000 administration. The number in parentheses indicates the number of times the experiment was repeated. Each member of non-treated control mice expired within 24 hr bacterial inoculation (0 mg/kg). Vancomycin served as a positive control.

[2] = system: S. aureus (MSSA); assay: CLSI broth microdilution MIC; format: cell-based, Staphylococcus aureus; conditions: strain UAMS-1, the strain's MIC used for time-kill assays
Text: In some examples, compounds can be further assayed using the Mueller Hinton (MH) broth antibacterial assay as specified by the Clinical and Laboratory Standards Institute MIC broth microdilution protocol (see Methods for Dilution Antimicrobial Susceptibility Tests for Bacteria That Grow Aerobically; Approved Standard, In The Clinical and Laboratory Standards Institute (CLSI, formerly NCCLS), 7th ed., January 2006, 26 (2), M7-A7; see also Performance Standards for Antimicrobial Susceptibility Testing; Eighteenth Informational Supplement, In The Clinical and Laboratory Standards Institute (CLSI, formerly NCCLS), January 2008, 28 (1), M100-S18).
With the exception of RN4220-derivatives, in vitro activities of RNPA1000 against bacteria were determined by the broth microdilution method according to the Clinical and Laboratory Standards Institute (CLSI) guidelines using cation adjusted Mueller-Hinton broth or MH broth supplemented with 5% lysed horse blood (for testing Streptotococcus spp.). Microtiter plates containing serial dilutions of RNPA1000 (0, 4, 8, 16, 32, 64, and 128 μg/ml) were inoculated with 10^5 colony forming units (CFU)/ml and incubated for 18 hr at 37° C. […] The MIC value for each S. aureus strain was determined to be the median score of replicate measurements (n=5). Wells containing concentrations of RNPA1000≧MIC were plated for minimal bactericidal measurement. Where possible, experiments with VRSA strains were performed in a laminar flow hood to minimize potential for equipment contamination. For RN4220 cells containing plasmid vector (pCN51), RnpA overproducing plasmid (pRNPA-S) or RnpA underproducing plasmid (pRNPA-A.S.) in vitro antimicrobial activity of RNPA1000 was performed by the microdilution method as described above, except that cells were grown in Tryptic Soy Broth medium supplemented with 2.5 μM CdCl2 and 0, 1, 2, 4, 8, 16, 32, 64, or 128 μg/ml RNPA1000. Time-kill assays were also performed to monitor the antimicrobial properties of RNPA1000 for S. aureus strain UAMS-1 in the absence and presence of 0.25, 0.5, 2, and 4 times the strain's MIC for oxacillin (1 μg/ml), rifampicin (0.5 μg/ml), vancomycin (2 μg/ml), or daptomycin (1 μg/ml). The indicated amount of RNPA1000 and/or commercial antibiotic were added to mid-exponential phase (2×10^8 cfu/ml) S. aureus strain UAMS-1 cells and incubated at 37° C. Aliquots were removed at 0, 2, 4, 8, and 24 hr post-antimicrobial challenge, serial diluted, and plated to enumerate resulting cfu/ml. All time-kill assays were repeated at least 3 times.

[3] = system: biofilm-associated S. aureus strain UAMS-1; conditions: Weiss et al. 2009, cited from earlier work; for clearance of biofilm-associated S. aureus: 20× MIC over 3 days; for maximal decrease in biofilm-associated bacteria: same model and conditions

Row | Compound | % Survival ([1]; Vancomycin 0.25 mg/kg s.c.) [%] | % Survival ([1]; Vancomycin 1 mg/kg s.c.) [%] | % Survival ([1]; Vancomycin 4 mg/kg s.c.) [%] | % Survival ([1]; Vancomycin 16 mg/kg s.c.) [%] | MIC of commercial antibiotic [2] [µg/mL] | clearance of biofilm-associated S. aureus [3] | maximal decrease in biofilm-associated bacteria [3] [log]
1 | CN[C@H](CC(C)C)C(=O)N[C@H]1C(=O)N[C@@H](CC(N)=O)C(=O)N[C@H]2C(=O)N[C@H]3C(=O)N[C@H](C(=O)N[C@H](C(=O)O)c4cc(O)cc(O)c4-c4cc3ccc4O)[C@H](O)c3ccc(c(Cl)c3)Oc3cc2cc(c3O[C@@H]2O[C@H](CO)[C@@H](O)[C@H](O)[C@H]2O[C@H]2C[C@](C)(N)[C@H](O)[C@H](C)O2)Oc2ccc(cc2Cl)[C@H]1O [Vancomycin, vancomycin, reference compound] | 0 | 100 | 100 | 100 | 2 | none of these antibiotics cleared | 4
2 | CCCCCCCCCC(=O)N[C@@H](Cc1c[nH]c2ccccc12)C(=O)N[C@H](CC(N)=O)C(=O)N[C@@H](CC(=O)O)C(=O)N[C@@H]1C(=O)NCC(=O)N[C@@H](CCCN)C(=O)N[C@@H](CC(=O)O)C(=O)N[C@H](C)C(=O)N[C@@H](CC(=O)O)C(=O)NCC(=O)N[C@H](CO)C(=O)N[C@@H]([C@H](C)CC(=O)O)C(=O)N[C@@H](CC(=O)c2ccccc2N)C(=O)O[C@@H]1C [daptomycin] | – | – | – | – | 1 | none of these antibiotics cleared | 6
3 | CC(=O)NC[C@H]1CN(c2ccc(N3CCOCC3)c(F)c2)C(=O)O1 [linezolid] | – | – | – | – | – | none of these antibiotics cleared | 5
4 | Cc1onc(-c2ccccc2)c1C(=O)N[C@@H]1C(=O)N2[C@@H]1SC(C)(C)[C@@H]2C(=O)O [oxacillin] | – | – | – | – | 1 | – | –
5 | CO[C@H]1/C=C/O[C@@]2(C)Oc3c(C)c(O)c4c(O)c(c(/C=N/N5CCN(C)CC5)c(O)c4c3C2=O)NC(=O)/C(C)=C\C=C\[C@H](C)[C@H](O)[C@@H](C)[C@@H](O)[C@@H](C)[C@H](OC(C)=O)[C@@H]1C [rifampicin] | – | – | – | – | 0.5 | – | –
